Data on four molecules can be found in US20230138563A1, “METHODS FOR QUANTIFICATION OF COMPOUNDS IN CULTIVARS OF Cannabis sp” (MEDLEAF BIOTECHNOLOGIES AND GLOBAL RESEARCH AND D[…]., priority 2020, published 2023).

Molecules are shown by their SMILES.

The test system of data set [1] is U87 human glioma cells. The note with it: in vitro, dose-dependently, 0.01 up to 9 μM; cited from earlier work.
Data set [2] concerns U-87 MG glioma cell. The experiment in a line: single-cell microfluidic intracellular calcium bioassay (Fluo-4 fluorescence). The note with it: for [Ca^2+]i: single U-87 MG cell, calculated from fluorescence by eq. 1. How it is done:
The current study was designed to investigate the pharmacological potential of CBD on calcium uptake in U87MG glioma cells by a method using a single-cell microfluidic approach.
The glass chip was fabricated through the standard micromachining processes at Canadian Microelectronic Corporation (CMC) by a process that includes standard chip cleaning, thin film deposition, photolithography, photoresist development, hydrofluoric acid wet etching, reservoir forming, and chip bonding, as previously reported (Li et al. 2005). The chip design is shown in FIG. 9, consisting of three reservoirs, three channels and one chamber containing the cell retention structure to isolate the single cell. Reservoir 1 was used for cell introduction and washing, reservoir 2 was used for reagent delivery, and reservoir 3 was a waste reservoir. The channel was 40 μm deep, while the reservoirs were 600 μm deep and 2.5 mm in diameter.
A fluorescent calcium probe, Fluo-4 AM ester (50 μg, special packaging, Molecular Probes, Eugene, Oreg.) was first dissolved in 50 μL of dimethyl sulfoxide (DMSO, 99.9%, Sigma-Aldrich, St. Louis, Mo.) to make a stock solution of 1 μg/μL. Before use, it was freshly diluted in Hanks' balanced salt solution (HBSS, Invitrogen Corp., Grand Island, N.Y.) to make a 5.0 μM working solution. Due to light sensitivity of Fluo-4 AM, it must be stored in the dark at −20° C. Cannabidiol (CBD) was purchased from Cerilliant Corporation (Round Rock, Tex.) as drug enforcement agency-exempt solution, i.e. 1 mg/mL solution in methanol (MeOH). Trypan blue solutions (4%) were purchased from Sigma-Aldrich (St. Louis, Mo.). RPMI 1640 medium solution, trypsin-ethylenediaminetetraacetic acid (Trypsin-EDTA) (0.025%), penicillin-streptomycin and fetal bovine serum (FBS) were obtained from Life Technologies (Grand Island, N.Y.). lonomycin (Calcium salt, Sigma Chemical Co.) was used to saturate the Ca^2+-Fluo-4 fluorescence within the cells. Ionomycin was dissolved in DMSO to make the stock solution which was finally diluted in HBSS containing 1 mM CaCl2 to make working solutions. The glioma cells (U-87 MG) were obtained from ATCC (Manassas, Va.). The cells were maintained in the RPMI medium with 10% fetal bovine serum and 1% penicillin in a 5% CO2 atmosphere at 37° C. and were passaged twice a week.
An optical imaging and fluorescent measurement system was used, as previously described (Li et al., 2009). Briefly, an inverted microscope (TE300, Nikon, Mississauga, ON, Canada) was connected to a video camera (JVC, TK-C3180). A TV set was used for optical observation (FIG. 2). By using a dichroic filter (620 nm), only red light entered the video camera for cell imaging without interfering with the fluorescent measurement. The green fluorescent emission (535 nm) was achieved under the Xenon arc lamp excitation (480 nm) selected by the microphotometer system (PTI) through a detection aperture. The chip was translated back and forth manually so the cellular fluorescence or background signal could be measured.
Before running any experiment, the microfluidic chip was cleaned by soap solution (2 times), rinsed with deionized water (3 to 5 times), and sterilized with 75% ethanol (1 time). After the cleaning step, […] of a cell suspension was introduced into the cell inlet from reservoir 1, the cells flowed from the left to right across the cell retention structure. By adjusting the liquid levels of the right […] (waste) and the left reservoir 1 (cell inlet), a desired U-87 MG cell was slowed down near the entrance of the cell retention structure. As the glioma cell is adherent, it readily becomes stationary to maintain its location in the retention structure. The glioma cell was allowed to settle for about 15 minutes, during which it was attached to the glass chip surface before the fluorescence measurement started.

Data set [3] has as its system U87 human glioma cells. The note with it: mouse, in vivo; cited from earlier work.
For data set [4], the system named is U87 human glioma cell line. The note with it: cited from earlier work.
Data set [5] deals with U373 human glioma cell line. The note with it: cited from earlier work.
For data set [6] the following is noted: read-out: Kd (dissociation constant of the dye); cited from earlier work.

On to `C=C(C)[C@@H]1CCC(C)=C[C@H]1c1c(O)cc(CCCCC)cc1O` [CBD, cannabidiol], for which, in data set [1], the “translocation of U87 human glioma cells” value is “inhibited”. For the same molecule, the “change of [Ca^2+]i (FIG. 10)” value is “increased slightly” in data set [2] (9.5 μM CBD) and “significantly increased” in data set [2] (19 μM CBD compared to 9.5 μM). Also, in data set [2] (CBD 9.5 and 19 μM), the “concentration dependence of intracellular [Ca^2+]i increase” value was “concentration-dependent manner”. Further, the “cell viability by trypan blue at end of experiment” value in data set [2] (after 9.5 and 19 μM CBD and ionomycin) was “not dead”. For the same molecule, the entries for the “[Ca^2+]i” value in data set [2] (after 9.5 μM CBD) and in data set [2] (after 19 μM CBD) were 47.9 nM and 913 nM, respectively. In data set [3], the “viability of U87 human glioma cells in mice” value is “prohibited”. Further, the mitochondrial oxidative metabolism entry in data set [4] (CBD exposure to cells) is listed as “reduced”. The antiproliferative effect entry in data set [4] (U87) and in data set [5] was “antiproliferative effects” in each case.
The Kd is the concentration at which binding is half-saturated. `Cc1ccc(N(CC(=O)O)CC(=O)O)c(OCCOc2cc(-c3c4cc(F)c(=O)cc-4oc4cc(O)c(F)cc34)ccc2N(CC(=O)O)CC(=O)O)c1` [Fluo-4]: the Kd in data set [6] was 350 nM.
With `C[C@H](CCC(=O)O)C[C@H](C)C[C@H](C)C(=O)/C=C(\O)[C@H](C)C[C@H](C)C/C=C/[C@@H](C)[C@@H](O)[C@@H](C)[C@@H](O)C[C@@H]1CC[C@@](C)([C@H]2CC[C@@](C)([C@@H](C)O)O2)O1` [ionomycin, Ionomycin], the “fluorescence response after ionomycin (Fmax)” value in data set [2] (10 μM ionomycin, at ~6000 s) was “obvious fluorescence peak”.
For `C=CC(=C)CCC=C(C)C` [myrcene], in data set [2] (10 μM, data not shown), the cell calcium response result is “not detectable”. Also, the “cell calcium response (FIG. 11)” value in data set [2] (20 μM, alone) was “a little cell calcium response”.
